Measurements reported in patent US20170007561A1, “CONTEMPORANEOUS, HETEROGENEOUSLY-ORIENTED, MULTI-TARGETED THERAPEUTIC MODIFICATION AND/OR MODULATION OF DISEASE BY ADMINISTRATION OF SULFUR-CONTAINING, AMINO ACID-SPECIFIC SMALL MOLECULES” (BioNumerik Pharmaceuticals, Inc., priority 2014, published 2017).

Columns and labels:
T790M EGFR kinase = T790M EGFR kinase (Homo sapiens, UniProt P00533, T790M); test: EGFR kinase assay (ADP-glo, polyGT substrate), T790M mutant; type: biochemical
bovine TrxR = molecular target: T1, bovine TrxR (Bos taurus, UniProt O62768); test: TrxR NADPH oxidation assay without Trx (Reaction A); type: biochemical
T1 construct: purchased American Diagnostica
T1 sequence (O62768 1-499): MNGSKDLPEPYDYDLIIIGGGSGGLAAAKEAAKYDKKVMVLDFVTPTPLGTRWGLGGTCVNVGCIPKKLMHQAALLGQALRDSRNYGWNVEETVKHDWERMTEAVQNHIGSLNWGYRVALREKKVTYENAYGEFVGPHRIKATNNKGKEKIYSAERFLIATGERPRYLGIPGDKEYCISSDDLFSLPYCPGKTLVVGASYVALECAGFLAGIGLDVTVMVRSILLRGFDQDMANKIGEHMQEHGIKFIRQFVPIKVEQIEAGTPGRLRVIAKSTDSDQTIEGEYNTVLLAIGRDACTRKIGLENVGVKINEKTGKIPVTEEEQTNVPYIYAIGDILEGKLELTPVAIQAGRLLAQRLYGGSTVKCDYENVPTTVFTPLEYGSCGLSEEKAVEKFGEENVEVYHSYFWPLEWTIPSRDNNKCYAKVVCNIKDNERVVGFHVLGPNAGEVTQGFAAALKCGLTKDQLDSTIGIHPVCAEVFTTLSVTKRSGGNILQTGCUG

Sequence of T790M EGFR kinase (P00533 25-1210 T790M): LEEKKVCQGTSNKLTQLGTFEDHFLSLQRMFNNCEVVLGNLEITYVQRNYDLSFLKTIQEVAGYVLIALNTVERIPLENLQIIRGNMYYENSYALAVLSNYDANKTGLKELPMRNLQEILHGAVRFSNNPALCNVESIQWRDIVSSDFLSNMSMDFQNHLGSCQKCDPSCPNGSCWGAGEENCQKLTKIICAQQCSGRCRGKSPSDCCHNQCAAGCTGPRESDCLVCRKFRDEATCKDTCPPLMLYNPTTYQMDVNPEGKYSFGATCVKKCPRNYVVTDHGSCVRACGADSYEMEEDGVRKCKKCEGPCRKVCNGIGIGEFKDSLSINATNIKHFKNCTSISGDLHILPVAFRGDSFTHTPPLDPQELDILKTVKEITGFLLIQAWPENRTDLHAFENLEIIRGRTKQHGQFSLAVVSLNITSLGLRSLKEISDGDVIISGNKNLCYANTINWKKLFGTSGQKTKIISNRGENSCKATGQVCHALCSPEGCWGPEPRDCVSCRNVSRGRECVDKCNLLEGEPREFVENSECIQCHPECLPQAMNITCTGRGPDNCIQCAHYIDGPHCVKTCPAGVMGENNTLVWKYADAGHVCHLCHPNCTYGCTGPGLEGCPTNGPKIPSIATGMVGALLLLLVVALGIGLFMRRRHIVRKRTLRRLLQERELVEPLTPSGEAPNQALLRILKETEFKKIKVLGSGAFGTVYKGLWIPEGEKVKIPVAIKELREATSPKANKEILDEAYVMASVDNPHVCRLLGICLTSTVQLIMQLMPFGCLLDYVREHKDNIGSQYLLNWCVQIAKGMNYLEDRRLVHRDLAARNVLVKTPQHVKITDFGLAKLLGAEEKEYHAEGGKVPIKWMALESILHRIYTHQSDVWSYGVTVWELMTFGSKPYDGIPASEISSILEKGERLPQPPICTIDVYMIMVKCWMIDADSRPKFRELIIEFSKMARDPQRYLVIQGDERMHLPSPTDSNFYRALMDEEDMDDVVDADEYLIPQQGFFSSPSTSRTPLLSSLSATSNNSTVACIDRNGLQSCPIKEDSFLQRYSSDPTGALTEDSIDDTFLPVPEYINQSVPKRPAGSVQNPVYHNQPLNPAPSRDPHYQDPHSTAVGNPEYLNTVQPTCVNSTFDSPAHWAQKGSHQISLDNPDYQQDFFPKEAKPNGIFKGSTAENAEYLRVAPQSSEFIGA

SMILES: O=S(=O)([O-])CCSSCCS(=O)(=O)[O-].[Na+].[Na+] [Tavocept, disodium 2,2′-dithio-bis-ethane sulfonate]
- inhibition of T790M EGFR kinase (T790M EGFR kinase; 10 μM or 100 μM ATP, physiological concentrations (<20 mM) of Tavocept): did not notably inhibit
- inhibitory activity on T790M EGFR kinase activity (T790M EGFR kinase; Tavocept alone, 10 μM ATP): essentially no inhibitory activity
- effect on Erlotinib inhibition of T790M EGFR kinase (T790M EGFR kinase; Tavocept in combination with Erlotinib, 10 μM ATP): strongly potentiated
- Reduction by TrxR alone (bovine TrxR; Reaction A): did not detectably reduce
- NADPH Oxidation, Reaction A (bovine TrxR; TrxR alone + NADPH, no Trx, disulfide 0.5 mM): 0.3 ± 0.01 nmol/min/mL
